Laboratory results reported in patent US20160177395A1, “BIOMARKERS FOR THE PREDICTION OF RENAL INJURY” (priority 2007, published 2016).
Several values for one entry are separate records, joined by “and”; a condition that tells them apart may be missing. Equal entries are not always repeated. Entries after “also recorded” stand apart in the source; their conditions may differ.

Columns and labels:
[1] = test system: Sprague-Dawley Crl:CD(SD) rats; experiment: Rat toxicity study, single, 5-day and 28-day treatment (clinical observation, clinical pathology, autopsy, organ weights, histopathology);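 note: control rats received saline intraperitoneally, and the organs examined were adrenals, brain, kidneys, liver, spleen and thymus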
Method: Control animals were treated intraperitoneal with saline.
Randomization and group allocation: prior to treatment, the animals were assigned to the experimental groups based on their body weight. Mean body weight of each group at randomization was not deviate±20% of the mean population weight. Males and females were randomized separately. For the randomization, a computer program was used.
The day before autopsy, urinalysis was performed and blood samples were taken for hematology and clinical chemistry examinations.
On the day of autopsy the animals were anaesthetized with isoflurane, blood was collected for PBMC isolation then subjected to autopsy. Tissues and organs (adrenals, brain, kidneys, liver, spleen and thymus) were weighed and subjected to gross pathological and histopathological examinations.

kidney tissues = experiment: Random-Forest classifier for renal toxicity, discovery stage (Day-5 and Day-1 signatures); parameters: species or system rat; conditions: Day-5 animals, qRT-PCR data, signature of Table 13
Text: Finding signatures using machine learning algorithms requires two steps—selecting a limited set of features to be used for the signature, and building a classifier using these features. The feature selection stage is especially significant here for several reasons. Large number of features means a low signal to noise ratio, tampering the classifier performance, large number of features, compared to the relatively small number of samples, means that spurious features might exists. These are features that give good classification on the experiment data by chance, causing the classifier to be over-fitted to the learning set and have low prediction ability, and finally—a small number of features is important for practical application of the signature.
The initial features selection process is done by performing Mann-Whitney (Wilcoxon) rank-sum test on the data, considering only probesets whose overall normalized expression mean is over 25, to avoid working at noise-level. […]
The qRT-PCR data was used to construct the optimal Random-Forest classifier for Day-5 (Table 13) and Day-1 (Table 16). The optimal performance of the Day-5 signatures, as measured by cross validation is—Accuracy of 94% and LOR of 5.6. […]

[2] = test system: kidney tissues of treated or untreated rats; experiment: Real-time qRT-PCR of signature amplicons, validation stage, labeled and un-labeled samples (Table 23); conditions: listed as CadCl; for H31883_DB71_seg13 normalized qRT-PCR result / MUSCYCG1R_DB81_seg19-20 normalized qRT-PCR result / W41270_DB81_seg11 normalized qRT-PCR result: labeled sample, one line per animal; for H31883_DB71_seg13 normalized qRT-PCR expression (Cyclin-G1 (CCNG1) transcript) / MUSCYCG1R_DB81_seg19-20 normalized qRT-PCR expression / W41270_DB81_seg11 normalized qRT-PCR expression (tumor necrosis factor receptor superfamily, member 12a transcript): labeled samples
Outline: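 Rat kidney RNA, labeled and un-labeled samples, run over seven plates; two amplicons per signature gene (wild-type and splice variant). Values normalized to housekeeping genes, then per plate and amplicon by geometric mean of ratios against a shuffled normalization plate (outliers removed), then scaled.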

[3] = 5-day treatment, compared with controls
[4] = day1, kidney of individual male/female rats
[5] = day5, kidney of individual male/female rats
[6] = day28, kidney of individual male/female rats

[Cl][Cd][Cl] [Cadmium chloride]
Autopsy findings ([1]; 5-day treatment): No effect
Body weight gain ([1]; 5-day treatment): Body weight gain decreased in both sexes; also recorded: Decreased body weight gain was recorded in males
Clinical pathology ([1]; 5-day treatment): Slightly increased Gamma GT values were recorded in females; also recorded: ♀: ↑ γGT
Clinical symptoms ([1]; 5-day treatment): mild clinical symptoms (hollow psoas, colic) immediately after the administration
Histopathology / renal damage ([1]; 5-day treatment): No renal damage was found
Organ weight [1, 3]: Lower thymus weights
Water consumption [1, 3]: Decrease in Tobramycin and Cadmium chloride treated females
Body weight and body weight gain ([1]; 28-day treatment): affected body weight gain in both sexes; also recorded: Effect on body weight and body weight gain was seen
Clinical symptoms ([1]; 28-day treatment): Mild clinical symptoms (hollow psoas, colic) were recorded in both sexes; also recorded: Clinical symptoms were observed
Histopathology / nephrotoxicity ([1]; 28-day treatment): significant nephrotoxicity was found only in a single female; also recorded: ♂: lymphoid depletion
Water consumption ([1]; 28-day treatment): Slightly lower water consumption was recorded in males
Clinical pathology ([1]; 28-day treatment, blood and urine): AST (Aspartate Aminotransferase) values were elevated in both sexes; also recorded: A few transitional epithelial cells were observed in the urine of females; also recorded: ♀: trans. epith
Water consumption, males ([1]; 28-day treatment, compared with controls): Sight decrease during the last week
Decreasing order of nephrotoxicity at histopathological examination ([1]; 28-day treatment, females): Cisplatin, Cadmium chloride, Gentamycin, Doxorubicin and Tobramycin in females
Autopsy findings ([1]; 28-day treatment, male and female rats): Round bordered spleen and liver and thickening of peritoneum were recorded in both sexes; also recorded: Pale and enlarged kidneys were found in a single female; also recorded: Round bordered liver, enlarged spleen and thickening of the peritoneum were found in both sexes
Organ weight ([1]; 28-day treatment, male and female rats, compared with controls): higher liver and spleen weight; also recorded: increased weight of kidneys and decreased thymus were recorded in females; also recorded: Increased liver weights in groups of both sexes; also recorded: Higher weights of kidneys in females; also recorded: Weights of spleen were higher in Gentamycin treated males and Cadmium chloride treated groups of both sexes; also recorded: Decreased thymus weights
Clinical symptoms ([1]; single and 5-day treatment): Clinical symptoms were observed only in Cadmium chloride groups of both sexes
Body weight gain ([1]; single treatment): Decreased body weight gain was recorded in both sexes
Clinical pathology ([1]; single treatment): Lower lymphocytes and increased neutrophils counts were found in males
Clinical symptoms ([1]; single treatment): Mild clinical symptoms (hollow psoas, colic) were observed in both sexes
Samples classified correctly as toxic by the optimal Day-5 classifier (kidney tissues): 5 out of 6
H31883_DB71_seg13 normalized qRT-PCR result ([2]; day1, female rat kidney): 1.194 and 1.772 and 1.894
MUSCYCG1R_DB81_seg19-20 normalized qRT-PCR result ([2]; day1, female rat kidney): 1.133 and 1.64 and 1.263
W41270_DB81_seg11 normalized qRT-PCR result ([2]; day1, female rat kidney): 1.059 and 1.155 and 1.372
H31883_DB71_seg13 normalized qRT-PCR result ([2]; day1, male rat kidney): 1.034 and 1.027 and 0.957
MUSCYCG1R_DB81_seg19-20 normalized qRT-PCR result ([2]; day1, male rat kidney): 0.951 and 1.108 and 1.069
W41270_DB81_seg11 normalized qRT-PCR result ([2]; day1, male rat kidney): 1.499 and 1.622 and 1.512
H31883_DB71_seg13 normalized qRT-PCR result ([2]; day5, female rat kidney): 1.782 and 0.906
MUSCYCG1R_DB81_seg19-20 normalized qRT-PCR result ([2]; day5, female rat kidney): 1.866 and 0.805
W41270_DB81_seg11 normalized qRT-PCR result ([2]; day5, female rat kidney): 2.282 and 0.854
H31883_DB71_seg13 normalized qRT-PCR result ([2]; day5, male rat kidney): 1.104 and 1.157 and 1.671
MUSCYCG1R_DB81_seg19-20 normalized qRT-PCR result ([2]; day5, male rat kidney): 1.083 and 1.409 and 2.393
W41270_DB81_seg11 normalized qRT-PCR result ([2]; day5, male rat kidney): 1.337 and 1.662 and 1.675
H31883_DB71_seg13 normalized qRT-PCR result ([2]; day28, female rat kidney): 0.259 and 0.783 and 1.033
MUSCYCG1R_DB81_seg19-20 normalized qRT-PCR result ([2]; day28, female rat kidney): 0.728 and 0.975 and 1.58
W41270_DB81_seg11 normalized qRT-PCR result ([2]; day28, female rat kidney): 0.414 and 0.827 and 1.098
H31883_DB71_seg13 normalized qRT-PCR result ([2]; day28, male rat kidney): 0.531 and 0.817 and 0.633
MUSCYCG1R_DB81_seg19-20 normalized qRT-PCR result ([2]; day28, male rat kidney): 0.672 and 0.836 and 0.333
W41270_DB81_seg11 normalized qRT-PCR result ([2]; day28, male rat kidney): 0.781 and 1.107 and 0.807
H31883_DB71_seg13 normalized qRT-PCR expression (Cyclin-G1 (CCNG1) transcript) [2, 4]: 0.919 and 1.005 and 1.446 and 1.239 and 1.632 and 1.143
MUSCYCG1R_DB81_seg19-20 normalized qRT-PCR expression [2, 4]: 1.224 and 1.097 and 2.129 and 2.276 and 1.856 and 3.981
W41270_DB81_seg11 normalized qRT-PCR expression (tumor necrosis factor receptor superfamily, member 12a transcript) [2, 4]: 0.727 and 1.183 and 1.265 and 0.993 and 0.983 and 1
H31883_DB71_seg13 normalized qRT-PCR expression (Cyclin-G1 (CCNG1) transcript) [2, 5]: 1.057 and 1.154 and 0.786 and 1.132 and 1.051
MUSCYCG1R_DB81_seg19-20 normalized qRT-PCR expression [2, 5]: 1.036 and 2.018 and 1.292 and 3.613 and 2.866
W41270_DB81_seg11 normalized qRT-PCR expression (tumor necrosis factor receptor superfamily, member 12a transcript) [2, 5]: 1.067 and 2.101 and 1.109 and 0.769 and 1.211
H31883_DB71_seg13 normalized qRT-PCR expression (Cyclin-G1 (CCNG1) transcript) [2, 6]: 0.785 and 0.652 and 0.712 and 0.681 and 0.849 and 0.578
MUSCYCG1R_DB81_seg19-20 normalized qRT-PCR expression [2, 6]: 0.769 and 1.356 and 1.068 and 0.68 and 2.128 and 0.932
W41270_DB81_seg11 normalized qRT-PCR expression (tumor necrosis factor receptor superfamily, member 12a transcript) [2, 6]: 1.138 and 0.529 and 0.772 and 0.578 and 0.654 and 0.522
